Results taken from patent publication US10758534B2 (Vertex Pharmaceuticals Incorporated, priority 2014, dated 2020).

Molecular target: T1, F508del (Homo sapiens, UniProt P13569, DEL508-508)
T1 construct: expressed in transfected cells
Test: Protocol 1: membrane potential optical assay (FLIPR III, voltage sensing dye), identification of potentiator compounds
Type: cell-based
Settings: Table 3, compounds of Table 1
Method in brief: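 NIH 3T3 fibroblasts stably expressing F508del were cultured at 27° C for 24 hrs for temperature correction, then treated with compounds or DMSO and loaded with a voltage-sensing redistribution dye. Forskolin added with a Cl⁻ gradient activated the channel; membrane-potential fluorescence on FLIPR III reported increased gating.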

T1 sequence (P13569 with tags, fused parts or gaps DEL508-508): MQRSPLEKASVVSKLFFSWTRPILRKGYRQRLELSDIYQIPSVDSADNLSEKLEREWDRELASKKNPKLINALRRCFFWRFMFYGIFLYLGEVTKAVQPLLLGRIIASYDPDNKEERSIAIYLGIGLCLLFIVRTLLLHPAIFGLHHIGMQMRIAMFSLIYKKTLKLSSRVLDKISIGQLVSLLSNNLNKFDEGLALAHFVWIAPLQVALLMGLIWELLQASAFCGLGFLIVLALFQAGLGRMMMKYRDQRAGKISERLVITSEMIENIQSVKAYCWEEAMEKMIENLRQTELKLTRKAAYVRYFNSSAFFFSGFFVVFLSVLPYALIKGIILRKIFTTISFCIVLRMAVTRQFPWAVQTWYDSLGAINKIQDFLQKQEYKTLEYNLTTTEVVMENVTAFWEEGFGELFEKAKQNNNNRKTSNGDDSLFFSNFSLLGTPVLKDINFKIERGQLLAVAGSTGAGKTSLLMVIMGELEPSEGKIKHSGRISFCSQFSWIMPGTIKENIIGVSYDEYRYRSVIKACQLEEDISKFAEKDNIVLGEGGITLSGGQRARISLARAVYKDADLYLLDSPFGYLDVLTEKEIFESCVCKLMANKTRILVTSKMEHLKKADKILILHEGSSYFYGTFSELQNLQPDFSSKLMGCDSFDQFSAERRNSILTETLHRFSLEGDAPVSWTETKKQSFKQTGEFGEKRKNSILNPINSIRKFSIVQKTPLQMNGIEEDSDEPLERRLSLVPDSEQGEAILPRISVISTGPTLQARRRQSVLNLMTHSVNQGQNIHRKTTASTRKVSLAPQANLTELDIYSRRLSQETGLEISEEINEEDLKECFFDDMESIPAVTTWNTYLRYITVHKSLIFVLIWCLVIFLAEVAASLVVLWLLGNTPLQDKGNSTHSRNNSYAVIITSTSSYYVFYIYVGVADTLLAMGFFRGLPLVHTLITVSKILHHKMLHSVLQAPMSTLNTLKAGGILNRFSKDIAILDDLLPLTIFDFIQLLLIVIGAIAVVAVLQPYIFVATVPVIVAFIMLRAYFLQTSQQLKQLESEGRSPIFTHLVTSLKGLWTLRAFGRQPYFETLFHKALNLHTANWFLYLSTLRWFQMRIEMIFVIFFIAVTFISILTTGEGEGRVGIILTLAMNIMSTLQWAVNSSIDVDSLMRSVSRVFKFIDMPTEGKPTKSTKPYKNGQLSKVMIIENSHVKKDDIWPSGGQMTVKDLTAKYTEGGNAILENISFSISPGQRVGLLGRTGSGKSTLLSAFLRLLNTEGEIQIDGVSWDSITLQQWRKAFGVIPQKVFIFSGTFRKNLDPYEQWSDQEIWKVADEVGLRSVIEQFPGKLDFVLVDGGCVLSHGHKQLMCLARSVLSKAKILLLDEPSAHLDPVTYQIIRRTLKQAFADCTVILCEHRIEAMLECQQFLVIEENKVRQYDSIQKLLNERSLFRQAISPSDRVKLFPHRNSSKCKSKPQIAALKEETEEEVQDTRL

SMILES	EC30
COc1ccc(-c2ccc(C(=O)NS(=O)(=O)c3cccc(N)n3)c(Oc3c(C)cc(C)cc3C)n2)cc1F [Compound 1140, N-[(6-amino-2-pyridyl)sulfonyl]-6-(3-fluoro-4-methoxy-phenyl)-2-(2,4,6-trimethylphenoxy)pyridine-3-carboxamide]	+++ (“+++” means <3 uM)
COc1cccc(-c2ccc(C(=O)NS(=O)(=O)c3cccc(N)n3)c(N3[C@H](C)CC[C@@H]3C)n2)n1 [Compound 1141, N-[(6-amino-2-pyridyl)sulfonyl]-2-[(2S,5R)-2,5-dimethylpyrrolidin-1-yl]-6-(6-methoxy-2-pyridyl)pyridine-3-carboxamide]	++ (“++” means between 3 uM and 10 uM)
CC(C)COc1cc(F)cc(-c2ccc(C(=O)NS(=O)(=O)c3ccn[nH]3)c(N3CCCC3C)n2)c1 (stereo not drawn) [Compound 1142, 6-(3-fluoro-5-isobutoxy-phenyl)-2-(2-methylpyrrolidin-1-yl)-N-(1H-pyrazol-5-ylsulfonyl)pyridine-3-carboxamide]	++ (“++” means between 3 uM and 10 uM)
CCCOc1cccc(-c2ccc(C(=O)NS(=O)(=O)c3ccc[nH]c3=O)c(Oc3c(C)cc(C)cc3C)n2)c1 [Compound 1143, N-[(2-oxo-1H-pyridin-3-yl)sulfonyl]-6-(3-propoxyphenyl)-2-(2,4,6-trimethylphenoxy)pyridine-3-carboxamide]	++ (“++” means between 3 uM and 10 uM)
CC(C)COc1cc(F)cc(-c2ccc(C(=O)NS(=O)(=O)c3cccc(N)n3)c(N3CCC(C)(C)[C@@H]3C)n2)c1 [Compound 1144, N-[(6-amino-2-pyridyl)sulfonyl]-6-(3-fluoro-5-isobutoxy-phenyl)-2-[(2S)-2,3,3-trimethylpyrrolidin-1-yl]pyridine-3-carboxamide]	+++ (“+++” means <3 uM)
CC(C)Oc1ccc(-c2ccc(C(=O)NS(=O)(=O)c3cccc(N)n3)c(N3C[C@H](C)C[C@H](C)C3)n2)cn1 [Compound 1145, N-[(6-amino-2-pyridyl)sulfonyl]-2-[(3R,5S)-3,5-dimethyl-1-piperidyl]-6-(6-isopropoxy-3-pyridyl)pyridine-3-carboxamide]	+++ (“+++” means <3 uM)
COc1ccc(-c2ccc(C(=O)NS(=O)(=O)c3cccc(N)n3)c(Oc3c(C)cc(C)cc3C)n2)cc1OC [Compound 1146, N-[(6-amino-2-pyridyl)sulfonyl]-6-(3,4-dimethoxyphenyl)-2-(2,4,6-trimethylphenoxy)pyridine-3-carboxamide]	++ (“++” means between 3 uM and 10 uM)
Cc1cc(C)c(Oc2nc(-c3ccc(C(C)(C)O)cc3)ccc2C(=O)NS(=O)(=O)c2cccc(N)n2)c(C)c1 [Compound 1147, N-[(6-amino-2-pyridyl)sulfonyl]-6-[4-(1-hydroxy-1-methyl-ethyl)phenyl]-2-(2,4,6-trimethylphenoxy)pyridine-3-carboxamide]	++ (“++” means between 3 uM and 10 uM)
Cc1cc(C)c(Oc2nc(C(C)(C)C)ccc2C(=O)NS(=O)(=O)c2cnc(N)s2)c(C)c1 [Compound 1148, N-(2-aminothiazol-5-yl)sulfonyl-6-tert-butyl-2-(2,4,6-trimethylphenoxy)pyridine-3-carboxamide]	+++ (“+++” means <3 uM)
COC[C@H]1CCCN1c1nc(-c2cc(F)cc(OCC(C)C)c2)ccc1C(=O)NS(=O)(=O)c1cccc(N)n1 [Compound 1149, N-[(6-amino-2-pyridyl)sulfonyl]-6-(3-fluoro-5-isobutoxy-phenyl)-2-[(2R)-2-(methoxymethyl)pyrrolidin-1-yl]pyridine-3-carboxamide]	+++ (“+++” means <3 uM)
Cc1ccc(Oc2nc(-c3cc(F)cc(OC(C)C)c3)ccc2C(=O)NS(=O)(=O)c2cccc(N)n2)c(C)c1 [Compound 1150, N-[(6-amino-2-pyridyl)sulfonyl]-2-(2,4-dimethylphenoxy)-6-(3-fluoro-5-isopropoxy-phenyl)pyridine-3-carboxamide]	+++ (“+++” means <3 uM)
COc1ccc(F)cc1-c1ccc(C(=O)NS(=O)(=O)c2ccc[nH]c2=O)c(Oc2c(C)cc(C)cc2C)n1 [Compound 1151, 6-(5-fluoro-2-methoxy-phenyl)-N-[(2-oxo-1H-pyridin-3-yl)sulfonyl]-2-(2,4,6-trimethylphenoxy)pyridine-3-carboxamide]	++ (“++” means between 3 uM and 10 uM)
CC1(Cn2nc(C(C)(C)C)cc2C(=O)NS(=O)(=O)c2cccc(N)c2)CCCCC1 [Compound 1152, N-(3-aminophenyl)sulfonyl-5-tert-butyl-2-[(1-methylcyclohexyl)methyl]pyrazole-3-carboxamide]	+ (“+” means greater than 10 uM)
COc1nc(C)ccc1S(=O)(=O)NC(=O)c1ccc(C(C)(C)C)nc1Oc1c(C)cc(C)cc1C [Compound 1153, 6-tert-butyl-N-[(2-methoxy-6-methyl-3-pyridyl)sulfonyl]-2-(2,4,6-trimethylphenoxy)pyridine-3-carboxamide]	+++ (“+++” means <3 uM)
CC(C)(C)c1ccc(C(=O)NS(=O)(=O)c2cccc(N)n2)c(OC2CCC2)n1 [Compound 1154, N-[(6-amino-2-pyridyl)sulfonyl]-6-tert-butyl-2-(cyclobutoxy)pyridine-3-carboxamide]	++ (“++” means between 3 uM and 10 uM)
CCOC1CCN(c2nc(-c3cc(F)cc(OCC(C)C)c3)ccc2C(=O)NS(=O)(=O)c2ccn[nH]2)CC1 [Compound 1155, 2-(4-ethoxy-1-piperidyl)-6-(3-fluoro-5-isobutoxy-phenyl)-N-(1H-pyrazol-5-ylsulfonyl)pyridine-3-carboxamide]	++ (“++” means between 3 uM and 10 uM)
CC(C)COc1cc(F)cc(-c2ccc(C(=O)NS(=O)(=O)c3cccc(N)n3)c(N3CCC(C)(C)C3C)n2)c1 (stereo not drawn) [Compound 1156, N-[(6-amino-2-pyridyl)sulfonyl]-6-(3-fluoro-5-isobutoxy-phenyl)-2-(2,3,3-trimethylpyrrolidin-1-yl)pyridine-3-carboxamide]	+++ (“+++” means <3 uM)
CC(C)COc1cc(F)cc(-c2ccc(C(=O)NS(=O)(=O)c3cccc(N)n3)c(N(CC3CC3)C(C)C)n2)c1 [Compound 1157, N-[(6-amino-2-pyridyl)sulfonyl]-2-[cyclopropylmethyl(isopropyl)amino]-6-(3-fluoro-5-isobutoxy-phenyl)pyridine-3-carboxamide]	+++ (“+++” means <3 uM)
CCCc1ccc2c(c1)cc(C(=O)NS(=O)(=O)c1cccc(N)n1)n2Cc1c(C)cc(C)cc1C [Compound 1158, N-[(6-amino-2-pyridyl)sulfonyl]-5-propyl-1-[(2,4,6-trimethylphenyl)methyl]indole-2-carboxamide]	+++ (“+++” means <3 uM)
CC(C)COc1cc(F)cc(-c2ccc(C(=O)NS(=O)(=O)c3cccnc3N)c(N3[C@H](C)CC[C@@H]3C)n2)c1 [Compound 1159, N-[(2-amino-3-pyridyl)sulfonyl]-2-[(2S,5R)-2,5-dimethylpyrrolidin-1-yl]-6-(3-fluoro-5-isobutoxy-phenyl)pyridine-3-carboxamide]	+++ (“+++” means <3 uM)
Cc1cc(OCC(C)(C)C)ncc1-c1ccc(C(=O)NS(=O)(=O)c2cccc(N)n2)c(N2CC(C)CC2(C)C)n1 (stereo not drawn) [Compound 1160, N-[(6-amino-2-pyridyl)sulfonyl]-6-[6-(2,2-dimethylpropoxy)-4-methyl-3-pyridyl]-2-(2,2,4-trimethylpyrrolidin-1-yl)pyridine-3-carboxamide]	+++ (“+++” means <3 uM)
